Measured values: US10857128B2, “Methods and compositions for treating inflammatory diseases” (Helmholtz Zentrum München Deutsches Forschungszentrum für …, priority 2017, dated 2020)
Where two headings read alike, the source gives them in different places.

Assays:
Assay type in all cases: cell-based
[1] = system: costimulatory molecules of LPS-stimulated human dendritic cells; experiment: Costimulatory molecules on LPS-stimulated human monocyte-derived dendritic cells (flow cytometry); conditions: Dendritic cell, 24 h, LPS 0.1 μg/ml, D-amino acid 10 μM, mean ± SD of three experiments, relative to LPS-induced expression
Experimental: Generation of human monocyte-derived dendritic cells. Peripheral venous blood was obtained from healthy volunteers aged between 20 and 50 years after informed consent. Individuals with allergic disease, acute infection or taking any medication 20 days prior to blood sampling or any history of smoking (personal interview) were excluded prior to blood sampling. All experiments were conducted according to the principles expressed in the Declaration of Helsinki.
(§1) Peripheral blood mononuclear cells (PBMC) were isolated from heparinized whole blood by density gradient centrifugation (2000 rpm, 22° C., 20 min) (Biocoll, Biochrom AG, Berlin, Germany). […] Purity and viability of DCs was assessed by flow cytometry (FIG. 9A-C).
Costimulatory molecules on human DCs. The following primary monoclonal antibodies were used: CD83 fluorescein isothiocyanate (FITC); CD1a phycoerythrin (PE); CD86-FITC; CD80-PE; CD14 allophycocyanine (APC); CD40-APC; CD3-peridinin chlorophyll protein (PerCP); HLA-DR-PerCP; mouse immunoglobulins G1 (IgG1) mouse immunoglobulins G1 (IgG1) κ were used as isotype controls using the corresponding fluorochromes (all purchased from BD Biosciences, Heidelberg, Germany). To account for donor dependent variability of DC surface markers, all data were normalized to the expression induced by LPS which was set to 100% after subtraction of background values (FACS Canto, FACS DIVA software, Version 5.0.3, BD Biosciences, Heidelberg, Germany). Murine DC subsets and CD4^+ T cells. Single cell suspensions of splenocytes were obtained by filtering spleens through a 70 μm strainer. Samples were stained with CD3-PB (1:200, Biolegend, San Diego, USA), CD4-APC-H7 (BD, 1:400), CD11c-APC-Cy7 (1:100), Mhc-II-Percp-Cy5 (1:100), CD11b-FITC (1:100), CD80-AF647, CD40-APC (1:100). For intracellular cytokines, total spleen cells were stimulated with anti-CD3 (4 μg/mL, BD Bioscience, Heidelberg, Germany) and anti-CD28 (30 ng/mL, BD Bioscience, Heidelberg, Germany) for 16 h. 1×10^6 of total lung cells were stimulated for 16 h with MACSiBead particles coated with anti-CD3 and anti-CD28 using the T cell activation/expansion kit (Miltenyi Biotec, Bergisch Gladbach, Germany) in TexMACS medium (Miltenyi Biotec) according to the manufactures recommendations. Prior to staining, cells were treated with monensin (0.7 μL/mL, BD Golgi Stop, BD Bioscience, Heidelberg, Germany) for 6 h at 37° C. and intracellularly stained for II-4-PE (1:100, eBioscience, Vienna, Austria according to the manufacturer's protocols. Intracellular staining for Foxp3 was performed by using the Foxp3/Transcription Factor Staining buffer set (eBiosciences, Vienna, Austria) according to the manufacturer's recommendations.
Bioassays for screening for immune modulatory activity in probiotic supernatants. Two biological assays based on down-modulation of costimulatory molecules on human DCs, and of CCL17-secretion by a human Hodgkin lymphoma T cell line (KM-H2) were set up. Human immature DCs were matured with 0.1 μg/mL lipopolysaccharide (LPS) from E. coli (Sigma-Aldrich, St. Louis, USA) in the presence or absence of 200 μL bacteria free supernatants for 24 h followed by flow cytometric analysis of costimulatory molecules.

human LPS treated DCs = experiment: Cytokine secretion of human DCs (multiplex assay); conditions: for IFN-g / IL-5 / IL-10 / IL-12: 200 μl supernatant or amino acid 10 μM, 14 h
Experimental: as §1
[…] For probiotic supernatants, blank CDM1 was used as medium control. […] IL-5, IFN-gamma, IL-12, and IL-10, were quantified by a multiplex assay (Milliplex Human Cytokine Immunoassay, Millipore GMbH Schalbach, Germany) as described by the manufacturer.

[2] = system: CCL17 secretion of human Hodgkin lymphoma KM-H2 cells; experiment: CCL17 secretion bioassay with KM-H2 cells (ELISA); conditions: different concentrations, 24 h
Experimental: Human T cell line KM-H2. The human Hodgkin lymphoma T cell line (KM-H2) was purchased from the Leibniz Institute DSMZ-German Collection of Microorganisms and Cell Cultures, Braunschweig, Germany. 3-5×10^6 KM-H2 cells were grown in 4 mL RPMI 1640 per well in 6-well-plates (Nunc, Wiesbaden, Germany). All eukaryotic cells were cultured in 5% CO2 at 37° C. (HeraCell 240 and Heraeus BDD 6220, Thermo Fisher Scientific, Waltham, USA). Viability of cells after treatment with bacterial supernatants was assessed by trypan blue, 7-AAD and CellTiter-Blue® staining. (FIG. 9A-C)
Quantification of CCL17 and cytokines in eukaryotic cell culture supernatants. CCL17 was quantified in cell culture supernatants of KM-H2 cells using ELISA reagent Quantikine CCL17/TARC, (R&D Systems, Minneapolis, USA) according to the manufacturer's instructions (ELISA reader MRXII, Thermo Fisher Scientifc, Waltham, USA).
Bioassays for screening for immune modulatory activity in probiotic supernatants. Two biological assays based on down-modulation of costimulatory molecules on human DCs, and of CCL17-secretion by a human Hodgkin lymphoma T cell line (KM-H2) were set up. […]
Similarly, 200 μL supernatants were added to 3-5×10^6 KM-H2 cells for 24 h. Supernatants were collected from KM-H2 by centrifugation and stored at −80° C. until quantification of CCL17. […]

[3] = read-out: Percentage of CD40 expressing mature DCs
[4] = read-out: Percentage of CD80 expressing mature DCs
[5] = read-out: Percentage of CD83 expressing mature DCs
[6] = read-out: Percentage of CD86 expressing mature DCs
[7] = read-out: Percentage of HLA-DR expressing mature DCs

Row | Compound | activity at 10 µM [1, 3] | activity at 10 µM [1, 4] | activity at 10 µM [1, 5] | activity at 10 µM [1, 6] | activity at 10 µM [1, 7] | Ratio IL-5/IFN-g (human LPS treated DCs; with LPS 0.1 μg/ml) | Ratio IL-10/IL-12 (human LPS treated DCs; with LPS 0.1 μg/ml) | IFN-g (human LPS treated DCs; with LPS 0.1 μg/ml) | IL-5 (human LPS treated DCs; with LPS 0.1 μg/ml) | IL-10 (human LPS treated DCs; with LPS 0.1 μg/ml) | IL-12 (human LPS treated DCs; with LPS 0.1 μg/ml) | Ratio IL-5/IFN-g (human LPS treated DCs; without LPS) | Ratio IL-10/IL-12 (human LPS treated DCs; without LPS) | IFN-g (human LPS treated DCs; without LPS) | IL-5 (human LPS treated DCs; without LPS) | IL-10 (human LPS treated DCs; without LPS) | IL-12 (human LPS treated DCs; without LPS) | immune activity of synthetic tryptophan isomers in the CCL17 bioassay [2]
1 | C[C@@H](N)C(=O)O [D-alanine] | 102 ± 3.4% | 98.3 ± 2.6% | 97.7 ± 2.3% | 99.2 ± 2.1% | 98.1 ± 1.1% | – | – | – | – | – | – | – | – | – | – | – | – | –
2 | N[C@H](Cc1c[nH]cn1)C(=O)O [D-histidine] | 101 ± 3.2% | 102 ± 0.9% | 103.1 ± 0.3% | 102.5 ± 0.4% | 99.9 ± 0.9% | – | – | – | – | – | – | – | – | – | – | – | – | –
3 | CC[C@@H](C)[C@@H](N)C(=O)O [D-isoleucine] | 100 ± 2.4% | 98.2 ± 1.5% | 100 ± 1.1% | 99.8 ± 1.2% | 100.1 ± 0.3% | – | – | – | – | – | – | – | – | – | – | – | – | –
4 | CC(C)C[C@@H](N)C(=O)O [D-leucine] | 100 ± 1.7% | 100 ± 1.6% | 97.1 ± 2.4% | 102 ± 1.3% | 98 ± 10% | – | – | – | – | – | – | – | – | – | – | – | – | –
5 | CSCC[C@@H](N)C(=O)O [D-methionine] | 102.7 ± 0.6% | 100.4 ± 0.2% | 102 ± 2.2% | 102 ± 2.5% | 98.9 ± 2% | – | – | – | – | – | – | – | – | – | – | – | – | –
6 | N[C@H](Cc1ccccc1)C(=O)O [D-phenylalanine] | 100 ± 2.7% | 92.4 ± 3.5% | 99.6 ± 2% | 99.2 ± 3.3% | 98 ± 3.2% | – | – | – | – | – | – | – | – | – | – | – | – | –
7 | O=C(O)[C@H]1CCCN1 [D-proline] | 99.2 ± 1.3% | 100.3 ± 0.1% | 100.9 ± 0.4% | 101 ± 1.9% | 98.4 ± 2.6% | 0.030 | 0.002 | 2295.40 pg/mL | 69.10 pg/mL | 4.00 pg/mL | 1911.90 pg/mL | 0.171 | 0.065 | 92.60 pg/mL | 15.80 pg/mL | 5.90 pg/mL | 90.60 pg/mL | –
8 | N[C@H](CO)C(=O)O [D-serine] | 101 ± 1.1% | 100 ± 2.8% | 100.8 ± 0.3% | 101 ± 2.8% | 98.6 ± 0.6% | – | – | – | – | – | – | – | – | – | – | – | – | –
9 | C[C@H](O)[C@@H](N)C(=O)O [D-threonine] | 101 ± 1.5% | 100.8 ± 0.4% | 102.6 ± 0.5% | 102.1 ± 0.7% | 97.1 ± 3.9% | – | – | – | – | – | – | – | – | – | – | – | – | –
10 | N[C@H](Cc1ccc(O)cc1)C(=O)O [D-tyrosin] | 100 ± 1.3% | 101.6 ± 0.4% | 101.6 ± 0.6% | 102.2 ± 0.9% | 98.4 ± 2.4% | – | – | – | – | – | – | – | – | – | – | – | – | –
11 | CC(C)[C@@H](N)C(=O)O [D-valine] | 101 ± 2.4% | 99.6 ± 2% | 102 ± 1.2% | 101.8 ± 0.9% | 100 ± 1% | – | – | – | – | – | – | – | – | – | – | – | – | –
12 | O=C(O)[C@@H]1CCCN1 [L-Pro, L-Prolin] | – | – | – | – | – | 0.027 | 0.003 | 2133.90 pg/mL | 57.70 pg/mL | 6.00 pg/mL | 1938.00 pg/mL | 0.166 | – | 88.90 pg/mL | 14.80 pg/mL | – | 99.80 pg/mL | –
13 | N[C@@H](Cc1c[nH]c2ccccc12)C(=O)O [L-Trp, L-Tryptophan] | – | – | – | – | – | 0.030 | 0.002 | 2031.50 pg/mL | 61.40 pg/mL | 4.90 pg/mL | 1993.00 pg/mL | 0.267 | 0.065 | 45.00 pg/mL | 12.00 pg/mL | 5.70 pg/mL | 88.30 pg/mL | inactive
